Data: the NIST ThermoML archive (doi:10.1021/acs.jced.6b00460)

Assay: xn = mol fraction of the nth substance listed
Settings: 101 kPa, Liquid; for speed of sound: Sing-around technique in a fixed-path interferometer; for mass density: Vibrating tube method

CCCCCCCC[n+]1ccccc1.[Br-] [1-octylpyridinium bromide] + O
Settings | mass density, 308.15 K [kg/m3] | mass density, 318.15 K [kg/m3] | speed of sound, 308.15 K [m/s] | speed of sound, 318.15 K [m/s]
x2 = 0.0524 | 1167.92 | 1161.5 | 1507.5 | 1479.5
x2 = 0.1125 | 1167.75 | 1161.26 | 1508.2 | 1481.4
x2 = 0.2085 | 1167.44 | 1160.87 | 1509.1 | 1483.4
x2 = 0.2612 | 1167.11 | 1160.51 | 1509.6 | 1485
x2 = 0.3065 | 1166.66 | 1160.04 | 1510.1 | 1486.3
x2 = 0.4098 | 1164.79 | 1158.11 | 1511.2 | 1489.1
x2 = 0.4611 | 1163.24 | 1156.52 | 1511.8 | 1490.4
x2 = 0.5075 | 1161.35 | 1154.59 | 1512.2 | 1492
x2 = 0.6091 | 1155.07 | 1148.2 | 1513.8 | 1494.8
x2 = 0.6541 | 1151.03 | 1144.1 | 1514.5 | 1497.2
x2 = 0.7031 | 1145.4 | 1138.43 | 1515.1 | 1502.2
x2 = 0.7485 | 1138.7 | 1131.69 | 1516 | 1506.7
x2 = 0.8065 | 1127.15 | 1120.15 | 1516.8 | 1512.5
x2 = 0.8545 | 1113.64 | 1106.77 | 1517.5 | 1518
x2 = 0.9065 | 1091.9 | 1085.37 | 1518.2 | 1523.5
x2 = 0.9503 | 1062.05 | 1056.24 | 1518.8 | 1529.3

CCCCCCCC[n+]1ccc(C)cc1.[Cl-] [4-methyl-1-octylpyridinium chloride] + O
Settings | mass density, 308.15 K [kg/m3] | mass density, 318.15 K [kg/m3] | speed of sound, 308.15 K [m/s] | speed of sound, 318.15 K [m/s]
x2 = 0.0612 | 1107.62 | 1101.69 | 1448.6 | 1417.4
x2 = 0.1098 | 1107.56 | 1101.55 | 1452 | 1421.5
x2 = 0.2054 | 1107.52 | 1101.39 | 1457.5 | 1430.4
x2 = 0.2476 | 1107.46 | 1101.31 | 1459.9 | 1435.3
x2 = 0.3088 | 1107.3 | 1101.1 | 1463.2 | 1439.9
x2 = 0.4187 | 1106.44 | 1100.18 | 1468.7 | 1451.7
x2 = 0.4521 | 1105.97 | 1099.68 | 1472.2 | 1454.6
x2 = 0.5065 | 1104.89 | 1098.57 | 1475.1 | 1461.8
x2 = 0.6021 | 1101.75 | 1095.32 | 1483.4 | 1475
x2 = 0.6532 | 1099.16 | 1092.65 | 1487.9 | 1482.3
x2 = 0.7042 | 1095.66 | 1089.07 | 1492.5 | 1490.3
x2 = 0.7565 | 1090.74 | 1084.09 | 1497.2 | 1498.6
x2 = 0.8029 | 1084.75 | 1078.06 | 1501.7 | 1506.7
x2 = 0.8577 | 1074.57 | 1067.97 | 1505.2 | 1513.6
x2 = 0.9035 | 1061.61 | 1055.25 | 1510.4 | 1521.1
x2 = 0.9511 | 1039.58 | 1033.92 | 1514.3 | 1528.4

CCCCCCCC[n+]1ccccc1.[Cl-] [N-octylpyridinium chloride] + O
Settings | mass density, 308.15 K [kg/m3] | mass density, 318.15 K [kg/m3] | speed of sound, 308.15 K [m/s] | speed of sound, 318.15 K [m/s]
x2 = 0.0625 | 1128.68 | 1122.77 | 1483.2 | 1452.1
x2 = 0.1156 | 1128.57 | 1122.56 | 1484.1 | 1453.2
x2 = 0.2085 | 1128.29 | 1122.18 | 1485.3 | 1456.7
x2 = 0.2545 | 1128.08 | 1121.95 | 1486.2 | 1458.4
x2 = 0.306 | 1127.76 | 1121.63 | 1488 | 1461.8
x2 = 0.4127 | 1126.71 | 1120.54 | 1491.7 | 1464.8
x2 = 0.4534 | 1126.09 | 1119.9 | 1493.7 | 1466.1
x2 = 0.4995 | 1125.19 | 1118.95 | 1495 | 1469.4
x2 = 0.6103 | 1121.68 | 1115.24 | 1499.8 | 1473.8
x2 = 0.6508 | 1119.68 | 1113.12 | 1501.8 | 1477.2
x2 = 0.6962 | 1116.7 | 1110.01 | 1504.9 | 1481.8
x2 = 0.7542 | 1111.3 | 1104.41 | 1507.1 | 1487.1
x2 = 0.8086 | 1103.65 | 1096.63 | 1509.4 | 1493.7
x2 = 0.8512 | 1094.75 | 1087.7 | 1511.3 | 1497.9
x2 = 0.9009 | 1078.75 | 1071.93 | 1513.2 | 1505.5
x2 = 0.9485 | 1052.47 | 1046.38 | 1515.5 | 1515.2
